How the values were obtained:
[1] = molecular target: 5-hydroxytryptamine receptor 1B (Canis lupus familiaris, UniProt P79250)
[2] = molecular target: 5-hydroxytryptamine 1D receptor (Bos taurus, UniProt Q8MI13)
[3] = molecular target: 5-hydroxytryptamine receptor 2A (Homo sapiens, UniProt P28223)
[4] = molecular target: 5-hydroxytryptamine receptor 5A (Homo sapiens, UniProt P47898)
[5] = molecular target: T1, 5-hydroxytryptamine receptor 3A (Homo sapiens, UniProt P46098)
T1 sequence (P46098 whole entry): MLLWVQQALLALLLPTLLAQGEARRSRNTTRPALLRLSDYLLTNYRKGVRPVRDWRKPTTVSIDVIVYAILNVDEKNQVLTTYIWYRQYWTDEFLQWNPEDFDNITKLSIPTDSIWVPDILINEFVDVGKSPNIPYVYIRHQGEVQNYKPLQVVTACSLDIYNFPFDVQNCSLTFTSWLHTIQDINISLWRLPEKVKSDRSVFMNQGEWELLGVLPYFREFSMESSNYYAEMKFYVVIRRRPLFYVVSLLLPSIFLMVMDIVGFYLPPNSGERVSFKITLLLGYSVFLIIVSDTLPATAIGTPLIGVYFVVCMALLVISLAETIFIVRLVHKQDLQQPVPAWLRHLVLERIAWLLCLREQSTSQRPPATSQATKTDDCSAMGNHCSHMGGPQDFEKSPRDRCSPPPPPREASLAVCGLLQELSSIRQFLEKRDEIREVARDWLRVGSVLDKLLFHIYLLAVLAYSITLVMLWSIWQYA

[6] = molecular target: 5-hydroxytryptamine receptor 2B (Homo sapiens, UniProt P41595)
Sequence of 5-hydroxytryptamine receptor 2B (P41595 whole entry): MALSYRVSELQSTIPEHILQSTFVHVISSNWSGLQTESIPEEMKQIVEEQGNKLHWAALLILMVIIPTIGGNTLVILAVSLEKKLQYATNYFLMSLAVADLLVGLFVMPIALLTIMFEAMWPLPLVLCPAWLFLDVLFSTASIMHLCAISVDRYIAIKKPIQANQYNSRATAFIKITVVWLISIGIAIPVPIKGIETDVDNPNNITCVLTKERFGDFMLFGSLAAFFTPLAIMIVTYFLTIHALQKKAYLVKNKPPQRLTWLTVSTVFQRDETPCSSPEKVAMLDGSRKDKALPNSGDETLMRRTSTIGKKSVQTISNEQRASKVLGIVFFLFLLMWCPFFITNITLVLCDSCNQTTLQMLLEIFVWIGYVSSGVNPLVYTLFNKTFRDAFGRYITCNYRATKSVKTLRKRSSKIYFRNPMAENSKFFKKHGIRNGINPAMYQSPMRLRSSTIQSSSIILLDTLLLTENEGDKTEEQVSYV

[7] = molecular target: 5-hydroxytryptamine receptor 7 (Homo sapiens, UniProt P34969)
Sequence of 5-hydroxytryptamine receptor 7 (P34969 whole entry): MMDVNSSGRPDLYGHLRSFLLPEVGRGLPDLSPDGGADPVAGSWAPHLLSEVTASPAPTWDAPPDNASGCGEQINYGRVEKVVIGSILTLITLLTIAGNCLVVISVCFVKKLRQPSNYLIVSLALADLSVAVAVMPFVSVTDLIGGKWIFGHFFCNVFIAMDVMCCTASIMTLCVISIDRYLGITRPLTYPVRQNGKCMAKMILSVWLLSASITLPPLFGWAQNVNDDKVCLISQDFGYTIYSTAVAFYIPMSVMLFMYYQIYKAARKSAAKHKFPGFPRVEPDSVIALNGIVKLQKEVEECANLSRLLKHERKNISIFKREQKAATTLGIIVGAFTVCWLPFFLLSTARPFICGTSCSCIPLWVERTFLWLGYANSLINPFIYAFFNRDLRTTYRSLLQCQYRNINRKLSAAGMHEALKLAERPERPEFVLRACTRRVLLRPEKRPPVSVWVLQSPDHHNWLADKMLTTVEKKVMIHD

[8] = molecular target: T2, 5-hydroxytryptamine receptor 2C (Homo sapiens, UniProt P28335)
T2 sequence (P28335 whole entry): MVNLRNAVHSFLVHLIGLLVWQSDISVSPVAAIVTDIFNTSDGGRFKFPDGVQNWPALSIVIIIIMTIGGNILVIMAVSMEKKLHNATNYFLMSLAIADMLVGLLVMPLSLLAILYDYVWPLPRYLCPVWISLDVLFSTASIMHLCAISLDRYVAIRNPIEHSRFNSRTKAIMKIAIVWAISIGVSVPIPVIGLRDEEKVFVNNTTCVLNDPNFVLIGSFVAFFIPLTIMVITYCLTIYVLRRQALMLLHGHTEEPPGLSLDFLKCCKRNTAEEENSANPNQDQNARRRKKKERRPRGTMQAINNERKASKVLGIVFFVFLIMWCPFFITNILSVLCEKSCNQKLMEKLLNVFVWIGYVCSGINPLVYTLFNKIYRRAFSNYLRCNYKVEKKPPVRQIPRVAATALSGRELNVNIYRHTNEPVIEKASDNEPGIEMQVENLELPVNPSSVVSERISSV

[9] = molecular target: T3, Alpha-2A adrenergic receptor (Homo sapiens, UniProt P08913)
T3 sequence (P08913 whole entry): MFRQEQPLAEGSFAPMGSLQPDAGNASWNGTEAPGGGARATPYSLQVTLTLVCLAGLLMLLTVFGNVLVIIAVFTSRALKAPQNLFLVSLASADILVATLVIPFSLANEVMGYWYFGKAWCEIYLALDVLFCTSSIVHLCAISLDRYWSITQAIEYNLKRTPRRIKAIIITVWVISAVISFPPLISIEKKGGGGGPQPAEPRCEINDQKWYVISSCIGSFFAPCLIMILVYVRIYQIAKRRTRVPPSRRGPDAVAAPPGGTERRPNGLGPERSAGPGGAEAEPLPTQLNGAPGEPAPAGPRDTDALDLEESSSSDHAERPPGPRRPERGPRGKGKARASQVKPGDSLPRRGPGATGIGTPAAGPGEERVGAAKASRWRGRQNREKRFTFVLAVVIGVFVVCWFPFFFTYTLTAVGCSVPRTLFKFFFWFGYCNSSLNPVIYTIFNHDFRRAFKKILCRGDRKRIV

Sequence of 5-hydroxytryptamine receptor 2A (P28223 whole entry): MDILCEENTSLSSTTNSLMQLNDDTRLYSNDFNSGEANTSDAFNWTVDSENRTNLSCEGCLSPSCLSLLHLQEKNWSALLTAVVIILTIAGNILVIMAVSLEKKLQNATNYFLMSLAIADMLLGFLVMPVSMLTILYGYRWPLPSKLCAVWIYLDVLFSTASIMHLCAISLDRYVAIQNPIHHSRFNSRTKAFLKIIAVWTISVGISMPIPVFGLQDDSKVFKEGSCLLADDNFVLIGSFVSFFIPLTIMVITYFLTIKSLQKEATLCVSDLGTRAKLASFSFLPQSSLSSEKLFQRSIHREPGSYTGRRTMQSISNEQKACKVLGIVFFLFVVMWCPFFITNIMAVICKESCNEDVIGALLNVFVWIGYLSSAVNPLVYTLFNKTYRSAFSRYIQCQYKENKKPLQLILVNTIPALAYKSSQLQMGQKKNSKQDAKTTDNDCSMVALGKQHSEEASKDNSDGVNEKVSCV
Sequence of 5-hydroxytryptamine receptor 1B (P79250 whole entry): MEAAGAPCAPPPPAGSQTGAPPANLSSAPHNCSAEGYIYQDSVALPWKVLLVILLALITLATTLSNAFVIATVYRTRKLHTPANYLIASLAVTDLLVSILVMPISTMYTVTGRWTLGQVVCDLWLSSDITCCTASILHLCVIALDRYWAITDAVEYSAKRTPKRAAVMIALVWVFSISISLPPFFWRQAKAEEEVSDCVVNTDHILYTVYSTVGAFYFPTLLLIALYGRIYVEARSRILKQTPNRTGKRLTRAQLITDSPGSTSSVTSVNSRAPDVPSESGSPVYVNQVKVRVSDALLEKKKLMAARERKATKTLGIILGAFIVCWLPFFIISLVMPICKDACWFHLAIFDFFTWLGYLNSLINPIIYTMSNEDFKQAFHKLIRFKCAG
Sequence of 5-hydroxytryptamine receptor 5A (P47898 whole entry): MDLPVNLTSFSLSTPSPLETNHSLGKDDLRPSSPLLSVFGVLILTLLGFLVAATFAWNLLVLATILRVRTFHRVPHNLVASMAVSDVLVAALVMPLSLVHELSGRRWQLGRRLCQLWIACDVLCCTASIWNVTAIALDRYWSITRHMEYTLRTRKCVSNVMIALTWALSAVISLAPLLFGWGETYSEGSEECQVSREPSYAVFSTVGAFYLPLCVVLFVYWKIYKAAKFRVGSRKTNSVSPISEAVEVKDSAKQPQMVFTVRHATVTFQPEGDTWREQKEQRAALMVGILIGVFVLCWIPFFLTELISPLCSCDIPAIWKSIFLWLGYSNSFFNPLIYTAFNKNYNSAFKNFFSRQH
Sequence of 5-hydroxytryptamine 1D receptor (Q8MI13 whole entry): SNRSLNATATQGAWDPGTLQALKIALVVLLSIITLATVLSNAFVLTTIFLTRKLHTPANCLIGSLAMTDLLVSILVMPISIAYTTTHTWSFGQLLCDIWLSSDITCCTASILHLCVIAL

`CCc1cc2c(ccc3cnn(CC(C)N)c32)o1` (configuration not stated) [CAS_3045225] showed a Ki [1] of 1 µM, a Ki [2] of 0.481 µM and a Ki [3] of 0.013 µM. It also gave a Ki [4] of 1 µM, a Ki [5] of 1 µM and a Ki [6] of 0.0025 µM. For the same compound, the Ki [7] was 0.177 µM, the Ki [8] was 0.00089 µM and the Ki [9] was 0.126 µM.
Work on `CC(N)Cn1ccc2cc(F)c(Cl)cc21` (configuration not stated) [NSC_3045226] yielded a Ki [3] of 0.024 µM, a Ki [6] of 0.0024 µM and a Ki [8] of 0.019 µM.

From BindingDB's records for doi:10.1016/j.ejphar.2003.10.004 (Yamanouchi Pharmaceutical, 2004)
